For assay [1], the target named is T1, soluble guanylate cyclase (sGC) (Homo sapiens, UniProt Q02108+Q02153).
T1 construct: endogenously expressing soluble guanylate cyclase (sGC); endogenous in cells; host or cells: HEK293
T1 sequence (Q02108 1-690): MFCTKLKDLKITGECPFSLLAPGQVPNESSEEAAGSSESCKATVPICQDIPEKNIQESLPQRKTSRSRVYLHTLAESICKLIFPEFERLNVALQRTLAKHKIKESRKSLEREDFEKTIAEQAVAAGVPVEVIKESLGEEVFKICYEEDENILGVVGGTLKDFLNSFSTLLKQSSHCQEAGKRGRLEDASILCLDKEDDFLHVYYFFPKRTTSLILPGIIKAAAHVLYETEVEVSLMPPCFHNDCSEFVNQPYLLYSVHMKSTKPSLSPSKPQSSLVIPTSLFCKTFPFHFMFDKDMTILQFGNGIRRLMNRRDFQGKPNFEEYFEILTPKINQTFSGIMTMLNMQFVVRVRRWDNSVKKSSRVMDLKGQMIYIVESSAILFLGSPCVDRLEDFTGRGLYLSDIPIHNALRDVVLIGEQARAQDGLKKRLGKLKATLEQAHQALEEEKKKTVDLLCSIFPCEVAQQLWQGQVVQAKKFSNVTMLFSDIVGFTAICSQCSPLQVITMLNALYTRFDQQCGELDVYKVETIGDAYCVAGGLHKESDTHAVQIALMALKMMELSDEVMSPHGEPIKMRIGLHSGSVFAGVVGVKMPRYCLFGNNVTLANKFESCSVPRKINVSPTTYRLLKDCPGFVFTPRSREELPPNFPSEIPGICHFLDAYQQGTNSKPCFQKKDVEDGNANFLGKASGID
T1 sequence (Q02153 1-619): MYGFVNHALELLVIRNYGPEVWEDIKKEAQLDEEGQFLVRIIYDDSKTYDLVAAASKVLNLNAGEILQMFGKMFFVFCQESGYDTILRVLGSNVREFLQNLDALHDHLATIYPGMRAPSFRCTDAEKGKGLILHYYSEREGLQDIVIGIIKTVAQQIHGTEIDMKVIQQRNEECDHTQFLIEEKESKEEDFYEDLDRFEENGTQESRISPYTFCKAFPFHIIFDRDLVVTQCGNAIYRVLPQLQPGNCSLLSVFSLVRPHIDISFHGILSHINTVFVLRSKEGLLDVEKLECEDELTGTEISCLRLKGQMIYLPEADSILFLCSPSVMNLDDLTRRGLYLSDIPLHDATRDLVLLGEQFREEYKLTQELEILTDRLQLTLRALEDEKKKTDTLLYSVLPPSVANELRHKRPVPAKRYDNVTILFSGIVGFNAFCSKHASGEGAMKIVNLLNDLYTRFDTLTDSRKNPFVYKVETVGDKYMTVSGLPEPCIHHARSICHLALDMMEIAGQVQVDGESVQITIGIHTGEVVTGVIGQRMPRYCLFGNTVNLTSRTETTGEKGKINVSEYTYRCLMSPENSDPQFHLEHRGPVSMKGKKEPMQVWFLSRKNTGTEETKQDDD
Kind of assay: sGC-HEK-cGMP assay with LC/MS detection (Example 2A). The conditions noted are these: HEK293 cells, 10 μM DETA-NONOate, 20 min; concentration eliciting 50% of high control response (30 μM Compound Y); read-out: Absolute EC50 (nM) - binned. In kind it is cell-based. The method, then:
Human embryonic kidney cells (HEK293), endogenously expressing soluble guanylate cyclase (sGC), were used to evaluate the activity of test compounds. Compounds stimulating the sGC enzyme should cause an increase in the intracellular concentration of cGMP. HEK 293 cells were seeded in Dulbecco's Modification of Eagle's Medium supplemented with fetal bovine serum (10% final) and penicillin (100 U/mL)/streptomycin (100 μg/mL) in a 50 μL, volume at a density of 1.5×10^4 cells/well in a poly-D-lysine coated 384 well flat bottom plate. Cells were incubated overnight at 37° C. in a humidified chamber with 5% CO2. Medium was aspirated and cells were washed with 1× Hank's Buffered Saline Salt Solution (50 μL). Cells were then incubated for 15 minutes at 37° C. with 50 μL of a 0.5 mM 3-isobutyl-1-methylxanthine (IBMX) solution. Test article and Diethylenetriamine NONOate (DETA-NONOate) solutions (x μM concentration for test article solution and 10 μM concentration for DETA-NONOate solution; wherein x is one of the following concentrations);
were then added to the assay mixture and the resulting mixture incubated at 37° C. for 20 minutes. After the 20 minute incubation, the assay mixture was aspirated and 10% acetic acid containing 150 ng/mL+3-cGMP (internal standard for LCMS) (50 μL) was added to the cells. The plate was incubated at 4° C. for 30 minutes in the acetic acid solution to stop the reaction and lyse the cells. The plates were then centrifuged at 1,000 g for 3 minutes at 4° C. and the supernatant transferred to a clean reaction plate for LCMS analysis.
cGMP concentrations were determined from each sample using the LCMS conditions below (Table 2) and calculated standard curve. The standard curve was prepared in 10% acetic acid with 150 ng/mL+3cGMP (isotopically labelled cGMP with a weight 3 units higher than wild type) with the following final concentrations of cGMP in ng/mL: 1, 5, 10, 50, 100, 250, 500, 1000, 2000.
(§1) Data were normalized to a high control using the following equation: 100*(Sample—Low Control)/(High Control—Low Control), where the low control is the average of 16 samples treated with 1% DMSO, and the high control is the average of 16 samples treated with 30 μM of Compound Y depicted below. Data were fit using a 4-parameter fit (log(agonist) vs. response variable slope) using GraphPad Prism Software v.5. n=2 for all compounds. […] Compounds failing to elicit a minimum response of 50% are reported as >30 μM. For compounds run in duplicate or n higher than 2, the result herein given is the geometric mean of the several results obtained.

In a further assay the target is T2, sGC enzyme (Homo sapiens, UniProt Q02108+Q02153).
T2 construct: host or cells: HEK293 expressing GloSensor 40F cGMP
T2 sequence (Q02108 1-690): T1 sequence (Q02108 1-690)
T2 sequence (Q02153 1-619): T1 sequence (Q02153 1-619)
Put plainly: cGMP GloSensor cell-based assay, 384-well format (Example 2B). The settings on record: HEK293 GloSensor 40F cGMP cells, 10 μM DETA-NONOate; 50% of high control response (Compound Y); read-out: sGC_HEK_GloSensor EC50/IC50 Abs (Norm) (nM) Binned. The method, then: as §1
Human embryonic kidney cells (HEK293) cells expressing GloSensor™ 40F cGMP (Part No: CS182801, Promega) were used to evaluate the activity of test compounds. The luminescent biosensors (engineered luciferase) that were incorporated into these cells detect cGMP formed by the compounds stimulating the sGC enzyme and emit luminescence.
cGMP GloSensor cells were maintained in Dulbecco's Modification of Eagle's Medium (DMEM) supplemented with fetal bovine serum (FBS) (10% final) and hygromycine (200 μg/ml). The day before assay, cells were plated in DMEM with 10% FBS in a 50 μL volume at a density of 1.5×10^4 cells/well in a poly-D-lysine coated 384-well flat white-bottom plate (Corning Cat No 35661). Cells were incubated overnight at 37° C. in a humidified chamber with 5% CO2. The next day, medium was removed and cells were replaced with 40 μl/well of GloSensor™, […] (Promega Cat No E1291). Cells were treated for 90 minutes at 25° C. to allow the substrate to equilibrate in the cells. Test compounds and Diethylenetriamine NONOate (DETA-NONOate) was diluted to […] in serum-free CO2 independent medium and serally diluted at 4× dilutions to create 5× dose curve from which 10 ul was added to the wells (x uM concentration for test compound solution and 10 μM concentration for DETA-NONOate solution; wherein x is one of the following final concentrations).
For the kinetics studies, luminescense was measured right away for 0.2 sec per well with Envision (Perkin Elmer model No). For endpoint SAR screening, data were collected after 55 min incubation at room temperature.
Data analysis was carried out as indicated above in Example 2A.

In assay [2] the test system is lambs with acute pulmonary hypertension. The settings on record: inhaled microparticles, awake lambs, cited from earlier work; for pulmonary vasodilation: U-46619 infusion to mean pulmonary arterial pressure 35 mm Hg; for effect on mean arterial pressure / systemic arterial oxygenation / transpulmonary cGMP release: U-46619 infusion.

Where “and” joins values, the source holds several entries; their conditions need not be identical. Equal values may be shown once.

On to `Cc1cc(-c2nc(N)c3c(n2)NC(=O)C3(C)C)nn1Cc1ccccc1F` [Compound I-71, 4-amino-2-(1-(2-fluorobenzyl)-5-methyl-1H-pyrazol-3-yl)-5,5-dimethyl-5H-pyrrolo[2,3-d]pyrimidin-6(7H)-one], for which the EC50 was over 1000 nM in assay [1] and 100 to 1000 nM on sGC enzyme.

As for `Nc1nc(-c2nn(Cc3ccccc3F)c3ncccc23)nc(N)c1N1CCOCC1` [BAY 41-8543], in assay [2], the pulmonary vasodilation result was “dose dependent pulmonary vasodilation”, the “effect on mean arterial pressure” value was “without significant effect”, the systemic arterial oxygenation entry was “increased systemic arterial oxygenation” and the “transpulmonary cGMP release” value is given as “increased transpulmonary cGMP release”.

Take `Nc1nc(-c2nn(Cc3ccccc3F)c3ncccc23)ncc1C1CC1` [BAY 41-2272]: in assay [2], the pulmonary vasodilation entry was “dose dependent pulmonary vasodilation”, the “effect on mean arterial pressure” value is reported as “without significant effect” and the “transpulmonary cGMP release” value is reported as “increased transpulmonary cGMP release”.

Regarding `O=C(O)CCCCN(CCc1ccccc1OCc1ccc(CCc2ccccc2)cc1)Cc1ccc(C(=O)O)cc1` [BAY 58-2667], in assay [2], the pulmonary vasodilation entry was “dose dependent pulmonary vasodilation”, the “effect on mean arterial pressure” value is given as “without significant effect”, the systemic arterial oxygenation result is given as “increased systemic arterial oxygenation” and the “transpulmonary cGMP release” value was “increased transpulmonary cGMP release”.

`Cc1cc(-c2ncc3c(n2)NC(=O)C3(C)C)nn1Cc1ccccc1F` [Compound I-72]: the EC50 in assay [1] is over 1000 nM; at sGC enzyme, < 100 nM and 100 to 1000 nM.

On to `COC(=O)NS(=O)(=O)Nc1nc(-c2cc(-c3ccon3)n(Cc3ccccc3F)n2)nc2c1C(C)(C#N)C(=O)N2` (stereo not drawn) [Compound I-5], for which, in assay [1], the EC50 lay within 100 to 1000 nM.

With `CC1(C)C(=O)Nc2nc(-c3cc(-c4ccon4)n(Cc4ccccc4F)n3)nc(NCC(O)(C(N)=O)C(F)(F)F)c21` (stereo not drawn) [Compound I-8], the EC50 in assay [1] lay in the range of 100 to 1000 nM.

For the compound `CC1(C)C(=O)Nc2nc(-c3cc(-c4ccon4)n(Cc4ccccc4F)n3)nc(NCCO)c21` [Compound I-6], in assay [1], the EC50 fell in the range of 100 to 1000 nM.

Take `OC(Cn1nnc2cnc(-c3cc(-c4ccon4)n(Cc4ccccc4F)n3)nc21)(C(F)(F)F)C(F)(F)F` [Compound I-3]: in assay [1], the EC50 was over 1000 nM.

As to `CCOC(=O)C1(C)C(=O)Nc2nc(-c3cc(COC)n(Cc4ccccc4F)n3)nc(N)c21` (stereo not drawn) [Compound I-21], the EC50 in assay [1] was over 1000 nM.

With `CC1(C(=O)NC2CC2)C(=O)Nc2nc(-c3ccn(Cc4ccccc4F)n3)nc(N)c21` (stereo not drawn) [Compound I-14, 4-amino-N-cyclopropyl-2-(1-(2-fluorobenzyl)-1H-pyrazol-3-yl)-5-methyl-6-oxo-6,7-dihydro-5H-pyrrolo[2,3-d]pyrimidine-5-carboxamide], the EC50 in assay [1] was over 1000 nM.

The record behind these values is patent US10844064B2, “sGC stimulators” (Cyclerion Therapeutics, Inc., priority 2014, dated 2020).
